# Laboratory results from patent US8058281B2, “Use of adenine-derived compounds for the treatment of lupus” (Centre National de la Recherche Scientifique (CNRS), priority 2006, dated 2011).
# Where “and” joins values, the source holds several entries; their conditions need not be identical. Equal entries are not always repeated. Where two headings read alike, the source gives them in different places.
# Columns and labels:
# MRL/lpr mice [1] = assay: Proteinuria in MRL/lpr lupus mice; type: in vivo, mouse
# Method: FIG. 1: Effect of compound NCS 613 and denbufylline on proteinuria in MRL/lpr mice. Up to the age of 13 weeks, the mice received 4 administrations either of 30 μg of compound NCS 613 or of 100 μg of denbufylline.
# (§1) Pre-autoimmune female MRL/lpr mice aged 5 weeks received by intravenous route, either buffered saline (PBS; control group, 100 μl per mouse), or compound NCS 613, (30 μg/100 μl per mouse, diluted in saline solution containing 10% ethanol), or denbufylline (100 μg/100 μl per mouse, diluted in saline solution containing 10% ethanol). The […] groups were composed of 10 mice each. The administrations (4 in number) were carried out at the ages of 5, 7, 9 and 13 weeks, and mice were monitored regularly (observations, proteinuria test by Albutix strip, blood tests).
# PDE5 = biological target: T1, PDE5 (Bos taurus, UniProt Q28156); assay: PDE5 inhibition, radioenzyme assay, enzyme isolated from vascular tissue; type: biochemical, bovine; settings: PDEs isolated from vascular tissue; 1 μM substrate
# T1 construct: Effects of compound NCS 613 on PDEs isolated; from tissue; host or cells: bovine aortic media, cytosol, DEAE-Sephacel fraction
# Method: (§2) Cyclic nucleotides phosphodiesterase activity was measured by a radioenzyme method using tritiated cyclic AMP or GMP (1 μM) as substrate (Lugnier C. et al., Biochem. Pharmacol. (1986) 35, 1743-1751; Keravis T et al., Meth. Mol. Biol. (2005) 307, 63-74.). Tritiated adenosine or guanosine monophosphate formed by hydrolysis of the labelled cyclic nucleotide was transformed, in a second incubation with excess nucleotidase, into tritiated adenosine or guanosine. The formed nucleoside was separated from nucleotides by anion exchange resin chromatography. The radioactivity of the nucleoside was measured by liquid scintillation. […]
# (§3) A 3 g piece of bovine aortic media was chopped up with scissors, homogenised using an Ultra-Turrex then using a glass/glass Potter in 7 volumes/weight of buffer A containing a cocktail of protease inhibitors (20 mM Tris-HCl, 0.25 M saccharose, 2 mM magnesium acetate, 1 mM dithiothreitol, 5 mM EGTA, 2000 U/ml aprotinine, 10 mg/l leupeptine and 10 mg/l soy-bean trypsin inhibitor). […] The column was washed until no absorption at 280 nm could be detected, then elution was with a linear NaCl gradient (0-0.5 M) in buffer B. 3 ml fractions were collected and enzymatic activity was measured under various conditions so as to determine the peaks of enzymatic activity contained in the fractions for, in the order of elution, PDE1, PDE5, PDE3 and PDE4. […]
# [2] = test system: TNF-α secretion by blood cells of MRL/lpr mice; assay: TNF-α secretion by blood cells from treated mice after ex vivo LPS stimulation; type: in vivo, mouse; settings: LPS 24 h ex vivo
# Method: FIG. 3: Effect of compound NCS 613 and denbufylline on the production of TNF-α by blood cells from treated mice after LPS stimulation. TNF-α secretion by blood cells from mice having received saline solution (PBS), compound NCS 613 or denbufylline after ex vivo LPS stimulation for 24 hours was measured in the supernatants by ELISA. The error bars show the standard deviation of duplicates, and the percentage inhibition of TNF-α secretion as a function of the secretion measured in the PBS group is shown. The figures refer to experiments carried out on mice aged 11 (A) and 14 (B) weeks.
# as §1
# TNF-α secretion was measured after bacterial lipopolysaccharide (LPS) stimulation of mouse blood cells (blood pooled from the 7 mice per group). LPS cell stimulation for 24 hours generates TNF-α secretion which can then be measured in culture supernatants. Cells from the blood of the 3 groups of mice were separated on a Ficoll gradient, and then stimulated by LPS. Supernatants were collected after 24 hours of culture, and the presence of TNF-α in supernatants was measured by a double sandwich ELISA test (BD Biosciences). This experiment was carried out at different ages (11 and 14 weeks, that is 2 weeks after the 3rd administration and 1 week after the 4th administration respectively).
# MRL/lpr mice [3] = assay: Survival of MRL/lpr lupus mice; type: in vivo, mouse; settings: for effect on survival / life expectancy of MRL/lpr mice: 4 i.v. administrations (NCS 613 30 μg, denbufylline 100 μg), followed to 26 weeks
# Method: FIG. 2: Effect of compound NCS 613 (A) and denbufylline (B) on survival of MRL/lpr lupus mice. Up to the age of 13 weeks, the mice received 4 administrations either of 30 μg of compound NCS 613 or of 100 μg of denbufylline. The results are expressed in percentage survival of mice. Control mice received only PBS (phosphate buffered saline, pH 7.4) without the active ingredient.
# as §1
# PDE1 = PDE1 inhibition, radioenzyme assay, enzyme isolated from vascular tissue; type: biochemical, bovine; settings: PDEs isolated from vascular tissue; 1 μM substrate
# Method: as §2, §3
# MRL/lpr mice [4] = assay: Anti-double-stranded DNA antibodies in serum of MRL/lpr mice (ELISA); type: in vivo, mouse; settings: for age at which first anti-DNA Ab positive mice appeared: treatment stopped at 13 weeks; for percentage of mice positive for anti-DNA Abs in serum: positive = OD > 1
# Method: FIG. 4: Effect of compound NCS 613 and denbufylline on anti-double-stranded DNA Abs. The presence of Abs directed against DNA in murine serums was measured at different ages (in weeks) by ELISA. Results are shown as a percentage of positive mice. A mouse is defined as positive when the optical density (OD) measured by ELISA is greater than 1.
# as §1
# The presence of Abs directed against DNA in murine serums was measured at different ages by ELISA (Monneaux et al., Eur. J. Immunol. (2003) 33, 287-296; Monneaux et al, Arthritis Rheum (2004) 50, 3232-3238.). Calf thymus double-stranded DNA (Sigma) was adsorbed (100 ng/ml) on 96 well polyvinyl chloride plates (Falcon) and incubated overnight at 37° C. After three washes and a saturation step in PBS-Tween buffer containing bovine serum albumin, serums (diluted to 1/500) were incubated for one hour at 37° C. […] The absorbance was measured at 450 nm by spectrophotometry after the reaction had been stopped.
# PDE6 = PDE6 (so in the source) inhibition, radioenzyme assay, enzyme isolated from vascular tissue; type: biochemical, bovine; settings: PDEs isolated from vascular tissue; 1 μM substrate
# Method: as §2, §3
# PDE4 = PDE4 inhibition, radioenzyme assay, enzyme isolated from vascular tissue; type: biochemical, bovine; settings: PDEs isolated from vascular tissue; 1 μM substrate
# Method: as §2, §3
# PDE2 = biological target: T2, PDE2 (Homo sapiens, UniProt O00408); assay: PDE2 inhibition, radioenzyme assay, enzyme isolated from platelets; type: biochemical; settings: 1 μM substrate
# T2 construct: from tissue; host or cells: human platelets, cytosol, DEAE-Sephacel then MonoQ HPLC
# T2 sequence (O00408 whole entry): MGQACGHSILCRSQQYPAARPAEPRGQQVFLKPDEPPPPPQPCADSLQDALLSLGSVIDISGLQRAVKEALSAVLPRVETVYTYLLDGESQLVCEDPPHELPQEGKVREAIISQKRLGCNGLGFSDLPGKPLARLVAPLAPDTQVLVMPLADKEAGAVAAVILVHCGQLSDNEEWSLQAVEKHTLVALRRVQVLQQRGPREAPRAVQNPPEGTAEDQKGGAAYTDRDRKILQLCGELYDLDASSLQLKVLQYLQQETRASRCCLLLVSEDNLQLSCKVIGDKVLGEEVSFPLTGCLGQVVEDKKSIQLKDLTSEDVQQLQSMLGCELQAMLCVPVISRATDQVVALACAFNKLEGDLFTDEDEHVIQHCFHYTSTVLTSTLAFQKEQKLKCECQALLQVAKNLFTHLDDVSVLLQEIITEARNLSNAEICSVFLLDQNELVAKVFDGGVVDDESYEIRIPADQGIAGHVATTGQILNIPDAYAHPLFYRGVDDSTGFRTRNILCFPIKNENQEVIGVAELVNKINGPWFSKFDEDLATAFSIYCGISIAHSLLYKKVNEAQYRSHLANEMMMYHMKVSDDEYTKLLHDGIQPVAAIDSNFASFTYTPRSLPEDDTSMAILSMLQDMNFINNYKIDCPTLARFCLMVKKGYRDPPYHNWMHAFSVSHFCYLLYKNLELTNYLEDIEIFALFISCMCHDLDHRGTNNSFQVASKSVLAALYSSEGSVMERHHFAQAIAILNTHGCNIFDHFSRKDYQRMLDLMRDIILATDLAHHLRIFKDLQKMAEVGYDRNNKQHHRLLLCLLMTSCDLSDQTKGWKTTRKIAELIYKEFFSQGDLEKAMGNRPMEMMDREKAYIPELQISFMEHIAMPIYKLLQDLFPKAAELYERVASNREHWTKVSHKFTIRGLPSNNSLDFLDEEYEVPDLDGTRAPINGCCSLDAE
# Method: (§4) Cyclic nucleotides phosphodiesterase activity was measured by a radioenzyme method using tritiated cyclic AMP or GMP (1 μM) as substrate (Lugnier C. et al., Biochem. Pharmacol. (1986) 35, 1743-1751; Keravis T et al., Meth. Mol. Biol. (2005) 307, 63-74.). Tritiated adenosine or guanosine monophosphate formed by hydrolysis of the labelled cyclic nucleotide was transformed, in a second incubation with excess nucleotidase, into tritiated adenosine or guanosine. The formed nucleoside was separated from nucleotides by anion exchange resin chromatography. The radioactivity of the nucleoside was measured by liquid scintillation. Enzyme incubations were carried out under conditions in which there was no more than 15% of substrate hydrolysis, and each point was repeated.
# Washed human platelets from the French Blood Bank (Etablissement Francais du Sang) in Strasburg were left to stand, then the sedimented cells were homogenised in buffer A and centrifuged at 105.000 g for 1 hour. The supernatant was subject to chromatography following the procedure already described for the aortic media (C-2). Then the fractions rich in PDE2 (activity stimulated by 5 μM cGMP) were subject to HPLC chromatography using Pharmacia's MonoQ H/R 5×5. The fraction containing PDE2 was aliquoted and stored at −80° C. (Kameni Tcheudji J. F et al, J. Mol. Biol. (2001) 310, […].). […]
# recombinant PDE4B = recombinant PDE4B (Homo sapiens, UniProt Q07343); assay: Inhibition of recombinant PDE4 subtype PDE4B; type: biochemical
# Chain of recombinant PDE4B (Q07343 whole entry, species assumed): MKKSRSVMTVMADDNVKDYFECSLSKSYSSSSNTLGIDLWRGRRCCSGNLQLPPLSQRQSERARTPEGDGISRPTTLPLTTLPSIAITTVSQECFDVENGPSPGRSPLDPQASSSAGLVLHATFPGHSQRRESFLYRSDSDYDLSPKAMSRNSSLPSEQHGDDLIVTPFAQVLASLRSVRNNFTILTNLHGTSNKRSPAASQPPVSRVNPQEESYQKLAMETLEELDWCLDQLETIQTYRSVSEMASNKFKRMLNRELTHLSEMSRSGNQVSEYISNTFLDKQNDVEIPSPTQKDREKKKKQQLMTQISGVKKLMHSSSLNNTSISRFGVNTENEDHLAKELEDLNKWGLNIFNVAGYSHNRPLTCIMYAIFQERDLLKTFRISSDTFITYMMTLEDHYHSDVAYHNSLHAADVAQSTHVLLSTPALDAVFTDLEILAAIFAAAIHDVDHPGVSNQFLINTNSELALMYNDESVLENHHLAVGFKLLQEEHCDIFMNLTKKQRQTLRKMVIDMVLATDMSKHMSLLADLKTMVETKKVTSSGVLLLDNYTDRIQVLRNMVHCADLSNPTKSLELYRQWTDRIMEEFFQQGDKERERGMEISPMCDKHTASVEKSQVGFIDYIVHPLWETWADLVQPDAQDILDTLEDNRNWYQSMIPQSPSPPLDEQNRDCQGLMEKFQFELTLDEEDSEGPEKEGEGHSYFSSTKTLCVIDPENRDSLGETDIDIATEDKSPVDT
# Method: as §4
# (§5) The concentration of the substance causing 50% inhibition of enzymatic activity (IC50) at 1 μM substrate was calculated by non-linear regression (Prism, GraphPad) with the help of the results obtained for compound concentrations that varied as the molecule concentration was increased from 1 nM to 300 μM. Because of solubility problems, the maximum concentration used in this study was limited to 300 μM.
# recombinant PDE4D = recombinant PDE4D (Homo sapiens, UniProt Q08499); assay: Inhibition of recombinant PDE4 subtype PDE4D; type: biochemical
# Chain of recombinant PDE4D (Q08499 whole entry, species assumed): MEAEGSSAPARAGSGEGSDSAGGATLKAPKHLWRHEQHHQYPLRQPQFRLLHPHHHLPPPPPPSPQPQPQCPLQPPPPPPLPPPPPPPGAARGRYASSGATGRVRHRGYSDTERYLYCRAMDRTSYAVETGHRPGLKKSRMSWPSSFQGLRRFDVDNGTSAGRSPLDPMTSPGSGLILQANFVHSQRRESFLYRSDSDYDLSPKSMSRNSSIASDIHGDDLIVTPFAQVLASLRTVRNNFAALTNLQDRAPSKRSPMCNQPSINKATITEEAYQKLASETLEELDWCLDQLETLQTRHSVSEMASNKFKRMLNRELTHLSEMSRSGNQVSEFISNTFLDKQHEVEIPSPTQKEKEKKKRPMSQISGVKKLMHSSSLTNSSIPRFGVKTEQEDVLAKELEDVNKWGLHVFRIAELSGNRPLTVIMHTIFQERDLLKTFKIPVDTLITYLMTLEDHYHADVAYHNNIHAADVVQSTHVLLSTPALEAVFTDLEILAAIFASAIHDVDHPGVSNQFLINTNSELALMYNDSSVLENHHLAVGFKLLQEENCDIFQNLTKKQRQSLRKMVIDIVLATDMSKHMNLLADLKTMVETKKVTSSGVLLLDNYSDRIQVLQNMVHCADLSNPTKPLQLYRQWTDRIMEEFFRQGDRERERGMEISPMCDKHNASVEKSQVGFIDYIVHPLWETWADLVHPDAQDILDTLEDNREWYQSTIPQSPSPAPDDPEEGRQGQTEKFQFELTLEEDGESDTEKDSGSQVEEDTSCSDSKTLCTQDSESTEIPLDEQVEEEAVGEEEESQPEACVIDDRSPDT
# Method: as §4, §5
# [5] = test system: TNF-α secretion by PBMCs of patients with auto-immune diseases; assay: TNF-α secretion after LPS stimulation of mononuclear blood cells of autoimmune patients; type: cell-based, human; settings: for inhibition at 10 µM: Homo sapiens, PBMC
# Method: FIG. 5. Inhibition of TNF-α secretion by compound NCS 613 after LPS stimulation of the PBMCs of patients with auto-immune diseases. Blood cells from patients with lupus (SLE), rheumatoid arthritis (RA) and Sjögren's syndrome (SS) were incubated for 45 minutes in the presence or absence of NCS 613 (10 μM), then stimulated with LPS. The supernatants were recovered after 24 hours of culture and the level of TNF-α in supernatants was measured by ELISA. The results are given in TNF-α concentration after incubation in the presence or absence of NCS 613 (A) or as inhibition of TNF-α secretion after incubation with NCS 613 (B). Error bars show the standard deviation of duplicates.
# (§6) The blood of 5 patients with lupus, rheumatoid arthritis or Sjögren's syndrome was collected directly in heparinated tubes. Mononuclear blood cells were separated by centrifugation (30 min at 600 g) on a Ficoll gradient. Cells were then grown at a concentration of 2×10^5 cells per well in the presence or absence of compound NCS 613 (10 μM) for 45 minutes then stimulated with LPS. Supernatants were recovered after 24 hours of culture and the level of TNF-α in supernatants was measured by double sandwich ELISA (BD Biosciences).
# recombinant PDE4C = recombinant PDE4C (Homo sapiens, UniProt Q08493); assay: Inhibition of recombinant PDE4 subtype PDE4C; type: biochemical
# Chain of recombinant PDE4C (Q08493 whole entry, species assumed): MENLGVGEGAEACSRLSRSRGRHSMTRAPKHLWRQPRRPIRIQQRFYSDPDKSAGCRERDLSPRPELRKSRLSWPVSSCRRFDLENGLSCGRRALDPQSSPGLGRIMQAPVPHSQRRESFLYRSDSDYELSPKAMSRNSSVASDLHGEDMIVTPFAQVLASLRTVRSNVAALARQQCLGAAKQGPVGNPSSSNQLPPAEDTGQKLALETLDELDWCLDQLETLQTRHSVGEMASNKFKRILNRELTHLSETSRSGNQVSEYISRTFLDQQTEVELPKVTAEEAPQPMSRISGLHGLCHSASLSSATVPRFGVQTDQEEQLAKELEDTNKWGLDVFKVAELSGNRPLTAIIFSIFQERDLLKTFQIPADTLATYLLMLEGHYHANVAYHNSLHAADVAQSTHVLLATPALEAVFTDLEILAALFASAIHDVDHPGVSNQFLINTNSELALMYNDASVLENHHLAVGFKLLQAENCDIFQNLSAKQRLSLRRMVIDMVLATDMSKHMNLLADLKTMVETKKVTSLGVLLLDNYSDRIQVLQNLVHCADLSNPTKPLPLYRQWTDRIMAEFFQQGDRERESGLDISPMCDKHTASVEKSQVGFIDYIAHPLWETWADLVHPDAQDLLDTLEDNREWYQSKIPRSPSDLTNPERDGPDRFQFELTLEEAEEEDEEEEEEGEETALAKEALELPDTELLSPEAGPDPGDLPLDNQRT
# Method: as §4, §5
# [6] = test system: TNF-α secretion by PBMCs of a lupus patient; assay: Basal TNF-α secretion by mononuclear blood cells of a lupus patient; type: cell-based; settings: Homo sapiens, PBMC, no LPS stimulation, one lupus patient, read-out: inhibition of spontaneous (basal) TNF-α secretion
# Method: FIG. 6: Inhibition of TNF-α secretion by PBMCs of a lupus patient after incubation with NCS 613. The blood cells of a lupus patient (LED2) were incubated in the presence or absence of NCS 613 (10 μM). Supernatants were recovered after 24 hours of culture and the level of TNF-α in the supernatants was measured by ELISA. The results are given as TNF-α concentration after incubation in the presence or absence of NCS 613 and the percentage inhibition of TNF-α secretion after incubation with NCS 613 is shown. Error bars show the standard deviation of duplicates.
# as §6
# So the ability of compound NCS 613 to inhibit basal TNF-α secretion was studied in blood cells of this patient.
# recombinant PDE4A = recombinant PDE4A (Homo sapiens, UniProt P27815); assay: Inhibition of recombinant PDE4 subtype PDE4A; type: biochemical
# Chain of recombinant PDE4A (P27815 whole entry, species assumed): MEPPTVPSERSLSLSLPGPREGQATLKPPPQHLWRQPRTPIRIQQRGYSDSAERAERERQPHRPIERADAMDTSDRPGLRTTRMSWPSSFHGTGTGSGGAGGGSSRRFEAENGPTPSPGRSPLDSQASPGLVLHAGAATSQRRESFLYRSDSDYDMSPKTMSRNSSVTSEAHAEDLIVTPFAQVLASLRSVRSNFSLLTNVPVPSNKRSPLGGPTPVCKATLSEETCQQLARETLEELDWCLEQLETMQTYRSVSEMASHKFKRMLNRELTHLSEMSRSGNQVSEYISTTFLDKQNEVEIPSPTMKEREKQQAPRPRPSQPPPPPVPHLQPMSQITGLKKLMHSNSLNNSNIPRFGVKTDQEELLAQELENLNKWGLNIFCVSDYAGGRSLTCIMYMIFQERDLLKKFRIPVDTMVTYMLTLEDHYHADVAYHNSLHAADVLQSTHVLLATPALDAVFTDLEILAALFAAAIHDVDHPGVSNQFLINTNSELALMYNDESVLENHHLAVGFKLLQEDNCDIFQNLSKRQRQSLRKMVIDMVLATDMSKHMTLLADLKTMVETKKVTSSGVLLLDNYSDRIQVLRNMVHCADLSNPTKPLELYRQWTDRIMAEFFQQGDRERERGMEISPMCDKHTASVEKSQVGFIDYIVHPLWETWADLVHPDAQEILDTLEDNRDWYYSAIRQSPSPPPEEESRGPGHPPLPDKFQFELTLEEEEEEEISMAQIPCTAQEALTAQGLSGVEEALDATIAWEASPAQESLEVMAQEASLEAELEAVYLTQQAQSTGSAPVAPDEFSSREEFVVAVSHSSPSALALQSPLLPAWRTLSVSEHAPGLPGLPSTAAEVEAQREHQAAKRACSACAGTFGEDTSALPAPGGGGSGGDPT
# Method: as §4, §5
# [7] = at 20 weeks of age, 4 i.v. administrations at 5, 7, 9, 13 weeks (NCS 613 30 μg, denbufylline 100 μg)
# [8] = mice aged 11 weeks (2 weeks after 3rd administration)
# [9] = mice aged 14 weeks (1 week after 4th administration)
Structure (SMILES),percentage of mice with proteinuria detected (MRL/lpr mice [1]; [7]),IC50 (PDE5),"inhibition percentage of TNF-α secretion vs PBS control group [2, 8]","inhibition percentage of TNF-α secretion vs PBS control group [2, 9]",effect on survival / life expectancy of MRL/lpr mice (MRL/lpr mice [3]),IC50 (PDE1),age at which first anti-DNA Ab positive mice appeared (MRL/lpr mice [4]),IC50 (PDE4),IC50 (PDE2),also measured
"CCCCn1c(=O)c2c(ncn2CC(C)=O)n(CCCC)c1=O [Denbufylline, denbufylline, reference compound]",equivalent to that of control mice,5.4 µM,Equivalent results,even greater than that obtained with compound NCS 613,no acknowledged effect on mouse survival,33 µM,14 weeks,760 nM,208 µM,age at which mortality begins (MRL/lpr mice [3]; 4 i.v. administrations of 100 μg): 15 weeks; IC50 PDE6 (PDE6): n.s
"CNc1nc(C(F)(F)F)nc2c1ncn2Cc1ccccc1F [NCS 613, 9-(2-fluorobenzyl)-N(6)-methyl-2-trifluoromethyladenine]",50%,4.7 µM,44%,54%,markedly prolongs the life expectancy,39 µM,20 weeks,42 nM,24 µM,"percentage of mice with proteinuria detected (MRL/lpr mice [1]; at 14 weeks of age, 4 i.v. administrations at 5, 7, 9, 13 weeks (NCS 613 30 μg)): 10%; IC50 (recombinant PDE4B): 50 nM; IC50 (recombinant PDE4D): 14 nM; inhibition percentage of TNF-α secretion by mononuclear blood cells of lupus (SLE) patients, individual patients ([5]; 10 μM, LPS stimulation, 3 lupus patients): 69% and 91% and 98%; inhibition at 10 µM ([5]; LPS stimulation, mean of 3 patients, read-out: mean inhibition percentage of TNF-α secretion by mononuclear blood cells of lupus (SLE) patients): 86%; inhibition at 10 µM ([5]; patients with SLE, RA, Sjögren's syndrome, read-out: inhibition of TNF-α production by LPS-stimulated blood cells of autoimmune patients): 70 to 98%; mortality (MRL/lpr mice [3]; at 21 weeks of age, 4 i.v. administrations of 30 μg): 30%; IC50 (recombinant PDE4C): 1.4 nM; percentage of mice positive for anti-DNA Abs in serum (MRL/lpr mice [4]; at 20 weeks of age): 20%; percentage of mice positive for anti-DNA Abs in serum (MRL/lpr mice [4]; at 26 weeks of age, 13 weeks after end of treatment): 50%; IC50 (PDE6): > 300 µM; inhibition at 10 µM [6]: 67%; IC50 (recombinant PDE4A): 43 nM"
